{"source": "patent US20210186947A1", "about": "“TOMM6-INTERACTING EXTRACTS AND COMPOUNDS FOR USE IN THE TREATMENT AND PROPHYLAXIS OF NERVOUS SYSTEM DISEASES, ATHEROSCLEROSIS, HEPATITIS B INFECTION AND HUMAN PAPILLOMA VIRUS (HPV) INFECTION” (ETH ZURICH, priority 2018, published 2021)", "key": {"TOMM6 [1]": {"molecular_target": "T1, TOMM6 (Homo sapiens, UniProt Q96B49)", "T1 sequence (Q96B49 1-74)": "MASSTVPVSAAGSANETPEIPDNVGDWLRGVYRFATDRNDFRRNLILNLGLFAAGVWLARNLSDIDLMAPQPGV", "assay": "Tomm6 induction, test not described"}, "[2]": {"test_system": "angiotensin II AT2 receptor (AT2R, AGTR2)", "assay": "AT2R protein aggregation assay in HEK cells, immunoblot", "type": "cell-based, human", "conditions": "10 microM for 72 h", "method": "Proteins were also extracted from yeast cells and HEK cells expressing the indicated protein (i.e. HBsAg or AGTR2) as described above. Neuronal cell loss and hyperphosphorylated Tau in hippocampi of 15 months-old Tg2576 mice subjected to the CUMS protocol for 3 months was determined with crude homogenates of dissected hippocampi by direct binding assay with neuron-specific [^125I]-labeled anti-NeuN antibody (MAB377, clone A60, EMD Millipore, Merck KGaA, Darmstadt, Germany) and [^125I]-labeled AT8 antibody similarly as described (AbdAlla et al., J. Biol. Chem. 284, 6554-6565 (2009)).\nIn the second non-Abeta-based protein aggregation assay, different plant extracts were tested in a mammalian cell system, which analyzed the protein aggregation of the angiotensin II AT2 receptor (AT2R, AGTR2) protein in human embryonic kidney (HEK) cells. The system has physiological relevance because this cellular system is capable to reproduce AT2R protein aggregation, which also occurs in brains of AD patients and AD animal models (AbdAlla et al., J. Biol. Chem. 284, 6554-6565 (2009); AbdAlla et al., J. Biol. Chem. 284, 6566-6574 (2009)). The AT2 receptor in human embryonic kidney (HEK) cells forms stable dimers/oligomers under pro-oxidant conditions, which are resistant to urea-containing reducing SDS-PAGE (FIG. 2A, and AbdAlla et al., J. Biol. Chem. 284, 6566-6574 (2009)). […]"}, "Tomm6 [3]": {"molecular_target": "T2, Tomm6 (Mus musculus, UniProt Q9CQN3)", "T2 construct": "hippocampi were isolated from 5-10 aged Tg2576 mice, pulverized under liquid nitrogen and solubilized; from tissue; host or cells: hippocampus of Tg2576 mice", "T2 sequence (Q9CQN3 1-74)": "T1 sequence (Q96B49 1-74) with T5G, P7T, N15S, T17A, P18S, I20V, Y32F", "assay": "Immunoblot detection of hippocampal Tomm6 protein in treated Tg2576 mice", "type": "in vivo", "conditions": "for hippocampal Tomm6 protein content: Tg2576 AD mice subjected to the CUMS protocol, treated during CUMS (10 mg/kg/d)"}, "[4]": {"test_system": "hyperphosphorylated PHF-Tau", "assay": "Hippocampal hyperphosphorylated PHF-Tau in Tg2576 mice subjected to CUMS, binding assay with [125I]-labeled AT8 antibody", "type": "in vivo", "conditions": "15 months-old Tg2576 mice, 3 months of CUMS, treated during CUMS; compounds 10 mg/kg/d"}, "[5]": {"conditions": "mouse, in vivo, po, 100 mg/kg/day"}, "[6]": {"test_system": "hippocampal neuronal cell bodies (NeuN)", "assay": "Hippocampal neuronal loss in Tg2576 mice subjected to CUMS, binding assay with [125I]-labeled anti-NeuN antibody", "type": "in vivo", "conditions": "15 months-old Tg2576 mice, 3 months of CUMS, treated during CUMS; compounds 10 mg/kg/d"}, "[7]": {"assay": "Toxic adverse effects during 3 months of treatment of Tg2576 AD mice", "type": "in vivo", "conditions": "daily dose of 10 mg/kg"}, "TOMM6 [8]": {"molecular_target": "T1, TOMM6", "assay": "Screening for TOMM6-inducing compounds in HEK cells, TOMM6 immunoblot", "type": "cell-based", "parameters": "endogenous in cells; host or cells: HEK cells", "conditions": "final concentration 20 microM, 60 h", "method": "For immunoblot detection of (hippocampal or HEK cell) proteins, e.g. Tomm6/TOMM6 and Atp6v1a/ATP6V1A, (hippocampal) tissue was pulverized under liquid nitrogen, and HEK cell pellets were directly subjected to protein extraction. Proteins were extracted for 30 min at 4° C. with solubilization buffer (1% sodium deoxycholate, 0.1% SDS, 0.1% NP40, 5 mM EDTA, 50 mM Tris, pH 8.0) supplemented with protease/phosphatase inhibitors (Cat. No. P8349, and/or PPC1010, Sigma-Aldrich, St. Louis, Mo., USA). Particulate material was removed by centrifugation at 50 000×g for 20 min at 4° C. Solubilized proteins were concentrated and delipidated by precipitation with ice-cold acetone/methanol (12:2, final concentration 83%) for 90 min at 4° C. The pellet was dissolved in SDS-sample buffer supplemented with 2% SDS, 0.1 M DTT (or 5% mercaptoethanol), and 6 M urea for 90 min at room temperature. Proteins were stored at a concentration of 0.5 mg-1 mg/ml at −70° C. for further use. Immunoblot detection of proteins was performed with affinity-purified antibodies or F(ab)2 fragments of the respective antibodies after separation of proteins by urea-containing SDS-PAGE (7.5%-10%) under reducing conditions and electrophoretic protein transfer to PVDF membranes in a tank transfer cell (Mini Trans-Blot cell, Bio-Rad GmbH, Munchen, Germany). Bound antibodies were visualized with F(ab)2 fragments of enzyme-coupled secondary antibodies (Dianova GmbH, Hamburg, Germany) pre-absorbed to mouse serum proteins, or by enzyme-coupled protein A (EMD Millipore, Merck KGaA, Darmstadt, Germany) as applicable, and followed by enhanced chemiluminescent detection (ECL Plus, and/or ECL Prime, Amersham, GE Healthcare Life Sciences, Glattbrugg, Switzerland).\nTOMM6-inducing compounds were searched for and a screening system was established in HEK cells. HEK cells were cultured in the absence and presence of a test compound at a final concentration of 20 microM. Cells were harvested, proteins were extracted and TOMM6 protein levels were determined in immunoblot with TOMM6-specific antibodies. […] The following TOMM6-interacting (inducing) compounds were identified: Compound-3: N-[(3-chlorophenyl)methyl]-2-(3-piperidyl)oxazole-4-carboxamide; Compound-4: N-[(3,4-dichlorophenyl)methyl]-2-(3-piperidyl)oxazole-4-carboxamide; Compound-5: 2-[(1S)-1-amino-2-methyl-butyl]-N-[(3,4-dichlorophenyl)methyl]oxazole-4-carboxamide; Compound-6: 2-[(1S)-1-amino-2-methyl-propyl]-N-[(3,4-dichlorophenyl)methyl]oxazole-4-carboxamide; Compound-7: 6-(aminomethyl)-4-(4-chlorophenyl)-2-methyl-pyridine-3-carboxamide; Compound-8: 4-(2,4-dichlorophenyl)-6-[(1,3-dioxoisoindolin-2-yl)methyl]-2-methyl-pyridine-3-carboxamide; Compound-9: 4-(4-chlorophenyl)-6-[(1,3-dioxoisoindolin-2-yl)methyl]-2-methyl-pyridine-3-carboxamide; and Compound-10: 4-(4-chlorophenyl)-6-(hydroxymethyl)-2-methyl-pyridine-3-carboxamide)."}, "[9]": {"assay": "Measurement of serum level in dogs by HPLC", "type": "in vivo, German shepherd dogs", "conditions": "for peak serum concentration: t=1 h", "method": "(§1) Serum concentrations of alizarin were determined with serum isolated from the blood of male and female German shepherd dogs (age: 8-9 months) taken at different time points (0.5 h, 1 h, 2 h, 4 h, 6 h, 8 h, 24 h) after oral intake of the indicated doses for 4 weeks. In addition, serum concentrations of alizarin (Compound-1) were determined in male and female Sprague Dawley rats (body weight: 200-250 g) treated for 1 month and/or three months by oral gavage of alizarin at a once daily dose of 100 mg/kg, 50 mg/kg, 25 mg/kg and 12.5 mg/kg. Serum proteins were removed by acetonitrile precipitation, and alizarin was extracted by chloroform before separation on an HPLC-C18 column (Poroshell 120 EC-C18, 3.0×50 mm, Agilent) with an HPLC system (Agilent 1100 Series) and detection at OD245 nm. For quantitative determination of Compound-7 and Compound-10F in rat and dog serum, serum proteins were also removed by acetonitrile precipitation before HPLC analysis as detailed above and detection at OD254 nm."}, "[10]": {"assay": "Tolerability / toxicity in dogs during four weeks of oral treatment", "type": "in vivo", "conditions": "up to an oral dose of 12.5 mg/kg/day"}, "[11]": {"assay": "Measurement of serum level in rats by HPLC", "type": "in vivo, Sprague Dawley rats", "method": "as §1"}, "[12]": {"assay": "Sub-chronic oral toxicity in rats", "type": "in vivo, Sprague Dawley rats", "method": "Sub-chronic toxicity studies in dogs (German Shepherd dogs) and rats (Sprague Dawley rats) were performed by the Center of Applied Analytical and Veterinary Studies, Cairo, Egypt.\nThe oral toxicity of alizarin (Compound-1) in rats was determined in a sub-chronic toxicity study. Rats were treated for 3 months with a once daily oral dose of alizarin of 25 mg/kg/day, 50 mg/kg/day and 100 mg/kg/day. […] The good tolerability of alizarin in rats and dogs is supported by previous observations in humans, which document that long-term treatment for several years with alizarin and alizarin-containing plant extracts is not toxic and was previously used to prevent recurrence of calcium-containing urinary stones (Lorenz et al., Methods Find. Exp. Clin. Pharmacol. 7, 637-643, 1985). Taken together, alizarin has good oral bioavailability and a wide therapeutic window.\nPharmacokinetic data of Compound-7 were determined as another representative TOMM6/Tomm6 inducer with a different chemical structure than alizarin (Compound-1). […] The oral bioavailability of Compound-7 in dogs was much higher than in rats because oral doses of Compound-7 required to achieve equivalent peak serum concentrations were approximately 10-fold higher in rats compared to dogs (FIG. 20B). Again, this observation is in agreement with the equivalent surface area dosage rule, according to which rats and mice usually require a 10-12-fold higher dose than dogs and humans. […] This second peak could reflect enterohepatic recirculation of Compound-7."}, "[13]": {"conditions": "rats, repeated once daily oral intake of 20 mg/kg/d"}}, "note": "Substitutions are numbered along the chain they refer to.", "data": [{"smiles": "C[C@@H]1CCO[C@H]2Cn3cc(C(=O)NCc4ccc(F)cc4F)c(=O)c(O)c3C(=O)N12", "note": "[dolutegravir]", "values": [{"measurement": "Tomm6 induction", "setting": "TOMM6 [1]", "result": "not a Tomm6 inducer"}]}, {"smiles": "O=C(O)c1c(O)c(O)c2c(c1O)C(=O)c1ccccc1C2=O", "note": "[Compound-2, purpurin-3-carboxylic acid]", "values": [{"measurement": "aggregation of the AT2 receptor", "setting": "[2]", "result": "inhibited the aggregation of the AT2 receptor"}, {"measurement": "hippocampal protein content of Tomm6", "setting": "Tomm6 [3]; aged Tg2576 mice treated for 6 months", "result": "substantially increased"}, {"measurement": "hippocampal content of hyperphosphorylated PHF-Tau", "setting": "[4]", "result": "inhibited hippocampal PHF-Tau hyperphosphorylation"}, {"measurement": "daily food intake / food consumption", "setting": "[5]", "result": "did not significantly alter"}, {"measurement": "hippocampal neuronal loss", "setting": "[6]", "result": "prevented the CUMS-induced hippocampal neuronal loss"}]}, {"smiles": "Cc1nc(CO)cc(-c2ccc(Cl)cc2)c1C(N)=O", "note": "[Compound-10, 4-(4-chlorophenyl)-6-(hydroxymethyl)-2-methyl-pyridine-3-carboxamide]", "values": [{"measurement": "toxic adverse effects", "setting": "[7]", "result": "did not show any detectable toxic adverse effects"}, {"measurement": "hippocampal Tomm6 protein content", "setting": "Tomm6 [3]", "result": "significantly higher"}, {"measurement": "hippocampal content of hyperphosphorylated PHF-Tau", "setting": "[4]", "result": "significantly inhibited the hippocampal accumulation of hyperphosphorylated PHF tau"}, {"measurement": "hippocampal neuronal loss", "setting": "[6]", "result": "retarded the CUMS-induced hippocampal neuronal loss"}, {"measurement": "TOMM6 protein level in HEK cells", "setting": "TOMM6 [8]", "result": "inducers of TOMM6"}]}, {"smiles": "Cc1nc(CN)cc(-c2ccc(Cl)cc2)c1C(N)=O", "note": "[Compound-7, 6-(aminomethyl)-4-(4-chlorophenyl)-2-methyl-pyridine-3-carboxamide]", "values": [{"measurement": "oral bioavailability / serum concentrations after oral intake", "setting": "[9]", "result": "has oral bioavailability"}, {"measurement": "peak serum concentration", "setting": "[9]; repeated once daily oral dose of 2 mg/kg", "result": 0.59, "unit": "µg/mL"}, {"measurement": "peak serum concentration", "setting": "[9]; repeated once daily oral dosing of 5 mg/kg", "result": 1.56, "unit": "µg/mL"}, {"measurement": "peak serum concentration", "setting": "[9]; repeated once daily oral dosing of 12.5 mg/kg", "result": 3.96, "unit": "µg/mL"}, {"measurement": "hippocampal Tomm6 protein content", "setting": "Tomm6 [3]", "result": "strong increase in hippocampal Tomm6 protein content"}, {"measurement": "hippocampal content of hyperphosphorylated PHF-Tau", "setting": "[4]", "result": "decreased hippocampal PHF tau hyperphosphorylation"}, {"measurement": "hippocampal neuronal loss", "setting": "[6]", "result": "retarded overt neuronal loss"}, {"measurement": "toxic side effects", "setting": "[10]", "result": "did not show any detectable toxic side effects"}, {"measurement": "oral bioavailability / serum concentrations after oral intake", "setting": "[11]; rats", "result": "has oral bioavailability"}, {"measurement": "oral doses required to achieve equivalent peak serum concentrations, higher in rats compared to dogs", "setting": "[11]; rats vs dogs", "result": "approximately 10 fold"}, {"measurement": "time of peak serum concentration", "setting": "[11]; [13]", "result": 1, "unit": "h"}, {"measurement": "time of second serum peak", "setting": "[11]; [13]", "result": 3, "unit": "h"}, {"measurement": "TOMM6 protein level in HEK cells", "setting": "TOMM6 [8]", "result": "inducers of TOMM6"}, {"measurement": "daily food intake", "setting": "[12]; rats, daily oral dose of 100 mg/kg/d", "result": "slightly decreased daily food intake"}, {"measurement": "toxic side effects", "setting": "[12]; rats, up to an oral dose of 50 mg/kg/day, four weeks", "result": "did not show any detectable toxic side effects"}, {"measurement": "difference between therapeutic and toxic doses (therapeutic index)", "setting": "[12]; therapeutic dose 10 mg/kg once daily in rodent models", "result": "approximately 10 fold"}]}]}
